# Assays:
# [1] = Turbidity (OD660) after anaerobic culture of bacterial strains in PYGA, PYSA or PYXA medium
# Method: (§1) A frozen stock solution of each bacterial strain (a 10% (w/v) skim milk-2% sodium glutamate solution in which bacterial cells were suspended) (cell count: 2.0 to 5.5×10^10 cells/mL) was thawed, and the solution was inoculated at 1% to 4 mL of a PY liquid medium supplemented with 33 mM sodium acetate and 0.5 (w/v) % glucose (PYGA medium), followed by anaerobic culture at 37° C. for 24 hours. After the culture, the culture solution was inoculated at 1% to a fresh PYGA medium, followed by anaerobic culture at 37° C. for 24 hours. After the culture, the turbidity (OD660) of the culture solution was measured. Then, the culture solution was inoculated at 1% to a PY medium containing 0.5 (w/v) % L-sorbose or D-xylitol and 33 mM sodium acetate (the medium containing L-sorbose: PYSA, and the medium containing D-xylitol: PYXA), followed by anaerobic culture at 37° C. for 24 hours. Then, the turbidity (OD660) was measured.
# [2] = Evaluation of ability to produce butyrate from indigestible saccharides (Example 3)
# Description: Galactooligosaccharide (GOS), maltitol, D-mannitol, lactitol, isomalt, isomaltulose, L-sorbose and D-sorbitol were used as indigestible saccharides. These indigestible saccharides used, except for GOS, were reagent grade. GOS used was commercially available Oligomate 55N (Yakult Pharmaceutical Industry Co., Ltd.) from which monosaccharide and lactose fractions (fractions digestible and absorbable by the upper gastrointestinal tract) had been removed using an activated carbon column. Specifically, a saccharide solution diluted with purified water was added to a column packed with activated carbon (manufactured by Wako Pure Chemical Industries, Ltd.) swollen in purified water, and the column was washed with a 2% ethanol solution, followed by the elution of an indigestible fraction with a 50% ethanol solution. The eluate was dried under reduced pressure, and the obtained GOS saccharide solution was used.
# A. hadrus YIT 10092^T (DSM 3119^T), which is a type strain of A. hadrus (a typical human intestinal butyrate-producing bacterium), and two isolates were used.
# Each of these bacterial strains was anaerobically cultured at 37° C. for 24 hours in a PYA medium containing 33 mM sodium acetate supplemented with 0.5% D-glucose (PYGA medium). The culture solution was inoculated at 1% to a PYA medium containing 0.5 (w/v) % of each indigestible saccharide (test medium), followed by anaerobic culture at 37° C. for 24 hours. After the completion of the culture, the organic acid concentration in the culture solution was analyzed by ion-exclusion HPLC. The analysis conditions were the same as those described above in Example 2. After the quantification of the organic acid concentration, the amount of butyrate produced from each indigestible saccharide and the ratio of butyrate to total short-chain fatty acids were calculated according to the following expressions. (Amount of butyrate produced)=(Amount of butyrate in the test medium after culture)−(Amount of butyrate in a PYA medium without each indigestible saccharide after culture) (Ratio of butyrate)=(Amount of butyrate in the test medium after culture)/((Amount of acetate+Amount of propionate+Amount of butyrate) in the test medium after culture)×100 (Expression 3)
# [3] = Production of butyrate by each bacterial strain from L-sorbose and D-xylitol (ion-exclusion HPLC); conditions: 24 hours, minus PYA blank
# Method: as §1
# After the completion of the culture, the organic acid concentration in the culture solution was quantified by ion-exclusion HPLC. In this operation, a culture solution in a PY medium supplemented with sodium acetate but without L-sorbose or D-xylitol (PYA medium) was used as a blank.
# (HPLC Analysis Conditions) • Eluent: 15 mM perchloric acid-7% acetonitrile • pH adjuster: 15 mM perchloric acid-60 mM • tris(hydroxymethyl)aminomethane-7% acetonitrile • Separation column: Organic acid analysis column RSpak KC- • 811×2 (manufactured by Showa Denko K.K.) • Column temperature: 42° C. • Injected sample volume: 10 μL • Flow rate: 1.0 mL/min • Analysis time: 35 min • Detector: Waters 432 electric conductivity detector • Cell temperature: 45° C.
# The amount of butyrate produced was calculated according to (Expression 1). Amount of butyrate produced=(Amount of butyrate produced by culture for 24 hours in a PYSA or PYXA medium)−(Amount of butyrate produced by culture for 24 hours in a PYA medium) (Expression 1)
# [4] = Amount of butyrate produced by culture in PYA medium supplemented with acetate and lactate; conditions: PYA medium (33 mM sodium acetate) with 40 mM sodium lactate, 37° C. 24 hours, minus PYA without lactate
# Method: Each bacterial solution cultured in a PYGA liquid medium under the same conditions as those described in the preceding paragraph 1) was inoculated at 1% to a PYA medium containing 33 mM sodium acetate and further supplemented with 40 mM sodium lactate, followed by anaerobic culture at 37° C. for 24 hours. After the completion of the culture, the organic acid concentration in the culture solution was analyzed by ion-exclusion HPLC. The analysis conditions were the same as those described in the preceding paragraph 1). The amount of butyrate produced was calculated according to (Expression 2). Amount of butyrate produced=(Amount of butyrate produced by culture for 24 hours in a PYA medium supplemented with 40 mM sodium lactate)−(Amount of butyrate produced by culture for 24 hours in a PYA medium without 40 mM sodium lactate) (Expression 2)
# [5] = Biochemical properties: enzymatic activity (API-ZYM, Rapid ID32A API, API KENKI 20A); design: key: +: positive reaction; −: negative reaction; +^w: weak reaction
# Description: (§2) Commercially available API-ZYM, Rapid ID32A API, and API KENKI 20A (SYSMEX bioMerieux Co., Ltd.) were used in the testing of biochemical properties of various bacterial strains. The testing method followed the product manuals.
# [6] = Biochemical properties: saccharide fermentability (API-ZYM, Rapid ID32A API, API KENKI 20A); design: key: +: positive reaction; −: negative reaction; +^w: weak reaction
# Description: as §2
substance,measurement,setting,value
A. hadrus (Eubacterium hadrum) YIT 12354 (NITE BP-01831),Turbidity (OD660),[1]; after anaerobic culture at 37° C. for 24 hours in PYGA liquid medium,2.76
same,Turbidity (OD660),[1]; anaerobic culture at 37° C. for 24 hours of 1% inoculum in PYSA (L-sorbose),2.26
same,Turbidity (OD660),[1]; anaerobic culture at 37° C. for 24 hours of 1% inoculum in PYXA (D-xylitol),1.09
same,ability to utilize indigestible saccharides,"[2]; PYA medium with 0.5 (w/v) % of each indigestible saccharide, versus type strain, FIGS. 3 and 4",more than the type strain YIT 10092^T
same,Amount of butyrate produced,"[2]; from indigestible saccharides, versus type strain, FIG. 3",larger
same,ratio of butyrate to total short-chain fatty acids,"[2]; versus type strain YIT 10092^T, FIG. 4",higher than that of the type strain YIT 10092^T
same,Amount of butyrate produced,"[3]; D-Xylitol 0.5 (w/v) %, PYXA medium",31.0 mmol/L
same,Amount of butyrate produced,"[3]; L-Sorbose 0.5 (w/v) %, PYSA medium",14.8 mmol/L
same,Amount of butyrate produced,[4],16.5 mmol/L
same,Acid phosphatase,[5],+
same,Alkaline phosphatase,[5],+
same,Esterase (C4),[5],−
same,Naphthol-AS-B1-phosphohydrolase,[5],+
same,α-Glucosidase,[5],−
same,β-Galactosidase,[5],+
same,β-Galactosidase-6-phosphate,[5],−
same,Aesculin,[6],−
same,D-Cellobiose,[6],−
same,D-Mannitol,[6],+
same,D-Raffinose,[6],+^w
same,D-Xylose,[6],+
same,Glycerol,[6],−
same,L-Arabinose,[6],+
same,L-Rhamnose,[6],−
same,L-Sorbitol,[6],+
same,Mallose,[6],+^w
same,Salicin,[6],−

# From patent US10293004B2, “Butyrate-producing bacterium and use thereof” (KABUSHIKI KAISHA YAKULT HONSHA, priority 2014, dated 2019)
